Several values for one entry are separate records, joined by “and”; a condition that tells them apart may be missing. Identical values can stand only once. Like-named read-outs stand apart in the source and are kept apart here.
Tests used:
[1] = test system: perforin-dependent cytotoxicity of KHYG-1 NK cells on K562 target cells; assay: KHYG-1 cytotoxicity assay (51Cr-labeled K562 target cells); format: cell-based; settings: Homo sapiens
Experimental: (Table 1). […] An IC90 was used rather than an IC50 as we anticipated that elevated suppression of perforin activity is likely required to preserve the transplanted bone marrow stem cells in vivo.
The inhibition of the cytotoxic activity of KHYG-1 NK cells on K562 target cells was determined as described previously.[14] Briefly, compounds were added to KHYG-1 cells at 6–7 concentrations ranging from 20 μM to 312.5 nM in 2-fold dilutions in RPMI medium (Thermo Fisher Scientific, Waltham, MA) supplemented with 0.1% bovine serum albumin (BSA; Sigma-Aldrich, St. Louis, MO) for 20 min. ^51Cr-labeled K562 leukemia target cells were added to KHYG-1 cells at an effector/target ratio of 2:1 and incubated at 37 °C for 4 h. ^51Cr release was assayed using a Harvesting Press (Skatron Instruments, Lier, Norway), and radioactivity was estimated on a Wallac Wizard 1470 Automatic γ counter (Turku, Finland). The IC90 values were calculated by fitting a four-parameter logistic sigmoidal dose–response curve to the data using Prism version 8 (GraphPad, San Diego, CA). Each IC90 value represents the mean of at least three independent experiments, where six to seven concentrations were tested in triplicate for each compound.

[2] = Binding to proteins in KHYG-1 cell media (RPMI with 0.1% BSA) by equilibrium dialysis; format: in vitro ADME; settings: bovine, pH 7.4, read-out: free fraction in the KHYG-1 cell media
perforin = molecular target: T1, perforin (Mus musculus, UniProt P10820); assay: In vivo perforin inhibition (allogeneic bone marrow transfer assay)
T1 construct: endogenous in cells; host or cells: recipient cytotoxic lymphocytes (NK/CTL) of wild-type C57BL/6 mice, in vivo
T1 sequence (P10820 21-554): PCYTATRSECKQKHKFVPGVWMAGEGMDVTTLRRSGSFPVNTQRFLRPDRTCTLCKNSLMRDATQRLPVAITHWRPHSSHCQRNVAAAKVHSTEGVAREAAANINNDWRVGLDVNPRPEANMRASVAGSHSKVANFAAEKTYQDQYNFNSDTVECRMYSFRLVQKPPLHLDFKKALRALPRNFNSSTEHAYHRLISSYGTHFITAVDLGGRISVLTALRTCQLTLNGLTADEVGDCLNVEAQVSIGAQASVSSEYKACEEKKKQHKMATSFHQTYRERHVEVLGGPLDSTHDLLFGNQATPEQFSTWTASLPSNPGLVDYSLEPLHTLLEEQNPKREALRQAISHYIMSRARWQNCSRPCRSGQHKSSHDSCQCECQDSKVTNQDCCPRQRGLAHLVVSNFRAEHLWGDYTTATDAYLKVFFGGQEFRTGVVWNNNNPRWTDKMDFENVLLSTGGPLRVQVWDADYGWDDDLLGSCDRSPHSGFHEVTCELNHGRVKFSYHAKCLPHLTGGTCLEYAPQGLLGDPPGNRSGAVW
Experimental: This model was selected as a surrogate assay for graft rejection during allogeneic bone marrow/stem cell transplantation to enable rapid testing of perforin inhibition in vivo. Mice were transplanted with a mixture of equal numbers of allogeneic immunologically mismatched and syngeneic immunologically matched bone marrow. […] Allogeneic cell survival in spleen and peripheral blood was determined 24 h after transplant, using C57BL/6 perforin-deficient mice (100% perforin inhibition) and untreated C57BL/6 mice (0% perforin inhibition) as controls.
Compounds were tested for in vivo efficacy as described previously.[14] Age- (8–12 weeks) and sex-matched wild-type (H-2D^b, CD45.2^+) or perforin-deficient C57BL/6 mice (C57BL/6-Prf1^tm1Sdz/J; H-2D^b, CD45.2^+) received 12 ×10^6 bone marrow cells from both allogeneic BALB/c (H-2D^d) MHC-mismatched and syngeneic C57BL/6 (H-2D^b) MHC-matched mice (24 × 10^6 cells total). The wild-type recipient mice were treated with perforin inhibitor compounds by intraperitoneal injection in 20% hydroxypropyl-β-cyclodextrin vehicle (10 mL/kg), or with vehicle alone; perforin-deficient mice remained untreated. The mice were euthanized 24 h after bone marrow transfer for peripheral blood mononuclear cell (PBMC) and spleen collection.
Throughout the study, we utilized two strategies to distinguish between recipient, donor allogeneic, and donor syngeneic cells based on either fluorescent labeling prior to transplant or congenic marker expression (CD45.1/CD45.2). In the fluorescent dye approach, allogeneic wild-type BALB/c (H-2D^d, CD45.2^+) bone marrow was labeled with 1 μM carboxyfluorescein succinimidyl ester (CFSE) prior to mixing with syngeneic bone marrow from C57BL/6 congenic mice (CD45.1^+). Twenty-four hours after cell transfer, the harvested cells were stained with anti-CD45.1-phycoerythrin and anti-TER119-allophycocyanin monoclonal antibodies (BioLegend, San Diego, CA). TER119 was used for erythroid exclusion prior to the identification of allogeneic (CFSE^+) and syngeneic (CD45.1^+) donor cells. Using a second purely congenic marker approach, allogeneic BALB/c congenic (H-2D^d, CD45.1^+) bone marrow was mixed with syngeneic C57BL/6 double congenic (H-2D^b, CD45.1^+CD45.2^+) bone marrow prior to transfer. The harvested cells were stained with anti-CD45.1-phycoerythrin, anti-CD45.2-phycoerythrin-cyanine-7, and anti-TER119-allophycocyanin monoclonal antibodies (BioLegend, San Diego, CA). TER119 was used for erythroid exclusion, prior to identification of allogeneic donor (CD45.1^+), syngeneic donor (CD45.1^+ CD45.2^+), and recipient (CD45.2^+) cells. Dead cells were excluded using 7-aminoactinomycin D. Samples were acquired with an LSR Fortessa (BD Biosciences) and analyzed using FlowJo version 9 software (BD Biosciences). Prism version 9 (GraphPad) was used to calculate CTL indices as the percentage survival of syngeneic donor cells divided by the percentage survival of allogeneic donor cells. […] In vivo perforin inhibition animal experiments were approved by the Animal Ethics Committee of the QIMR Berghofer Medical Research Institute.

[3] = KHYG-1 viability (Trypan Blue exclusion); format: cell-based; settings: human, KHYG-1 NK cells, at 20 μM
Experimental: The toxicity of perforin inhibitors toward KHYG-1 NK cells was determined as described previously.[14] KHYG-1 cells were preincubated with compounds in the same manner as the KHYG-1 cytotoxicity assay prior to the addition of RPMI with 0.1% BSA and incubation at 37 °C for 4 h. The cells were then washed and resuspended in complete medium and incubated for a further 24 h at 37 °C, after which cell viability was assessed by Trypan Blue (Thermo Fisher Scientific) exclusion.

[4] = concentration inhibiting 90% of perforin-dependent cytotoxicity, K562 targets, effector/target 2:1, 4 h, RPMI 0.1% BSA, read-out: KHYG-1 IC90
[5] = 80 mg/kg bid (0 and 18 h), pooled with pretransplant dosing data
[6] = 120 mg/kg bid (0 and 18 h), pooled with pretransplant dosing data
[7] = 160 mg/kg bid (0 and 18 h), pooled with pretransplant dosing data
[8] = 160 mg/kg qd x 4 (0, 24, 48 h prior to and 18 h after transfer), 24 h after transplant

## CN1Cc2cc(-c3ccc(-c4cncc(NS(=O)(=O)c5ccccc5[N+](=O)[O-])c4)s3)ccc2C1=O [Compound 1, N-{5-[5-(2-methyl-1-oxo-2,3-dihydro-1H-isoindol-5-yl)-2-thienyl]-3-pyridinyl}-2-nitrobenzenesulfonamide]
[1]; KHYG-1, estimated from IC90 5.37 μM and media free fraction 0.144, read-out: unbound in vitro IC90 in KHYG-1 cells
  IC90: 0.77 µM
[1]; [4]
  IC90: 5.37 ± 1.1 µM
[2]
  fraction unbound at 6 h, 10 μM: 0.144
perforin; [5]
  % perforin inhibition, blood: -0.71%
  % perforin inhibition, spleen: 7.66%
perforin; 80 mg/kg qd (one dose at 0 h)
  % perforin inhibition, blood: -5.19%
  % perforin inhibition, spleen: -4.19%
perforin; 80 mg/kg qd x 4 (0, 24, 48 h prior to and 18 h after transfer), 24 h after transplant
  % perforin inhibition, spleen: 7.66% and 7%
perforin; 80 mg/kg qd x 4, 24 h after transplant
  % perforin inhibition, blood: 26.33% and 26%
perforin; 80 mg/kg tid (0, 9 and 18 h)
  % perforin inhibition, blood: -1.34%
  % perforin inhibition, spleen: -1.98%
perforin; [6]
  % perforin inhibition, blood: 43.66%
  % perforin inhibition, spleen: 30.50%
perforin; 120 mg/kg followed by two doses of 80 mg/kg
  perforin inhibition in vivo (in words): moderate perforin inhibition
perforin; 120 mg/kg qd (one dose at 0 h)
  % perforin inhibition, blood: 17.84%
  % perforin inhibition, spleen: 16.71%
perforin; 120 mg/kg qd x 4 (0, 24, 48 h prior to and 18 h after transfer), 24 h after transplant
  % perforin inhibition, spleen: 39.90% and 40%
perforin; 120 mg/kg qd x 4, 24 h after transplant
  % perforin inhibition, blood: 44.84% and 45%
perforin; 120 mg/kg tid (0, 9 and 18 h)
  % perforin inhibition, blood: 69.14%
  % perforin inhibition, spleen: 40.42%
perforin; [7]
  % perforin inhibition, blood: 56.50%
  % perforin inhibition, spleen: 42.46%
perforin; [8]
  % perforin inhibition, spleen: 48.20% and 48%
perforin; 160 mg/kg qd x 4, 24 h after transplant
  % perforin inhibition, blood: 55.47% and 55%
perforin; 120+80+80 mg/kg tid
  % perforin inhibition, blood: 34.71%
  % perforin inhibition, spleen: 15.22%
perforin; three doses of 80 mg/kg
  perforin inhibition in vivo (in words): ineffective
perforin; three doses of 120 mg/kg
  perforin inhibition in vivo (in words): highly active

## O=C1NCc2ccc(-c3ccc(-c4cncc(NS(=O)(=O)c5ccc(F)cc5F)c4)s3)cc21 [Compound 7, 2,4-difluoro-N-{5-[5-(3-oxo-2,3-dihydro-1H-isoindol-5-yl)-2-thienyl]-3-pyridinyl}benzenesulfonamide]
[1]; [4]
  IC90: 28.9 ± 6.7 µM
[3]
  viability at 24 h, 20 µM: 96 ± 6%
perforin; [8]
  % perforin inhibition, spleen: 26.55%

Reference: article PMC9194936, “Preclinical Activity and Pharmacokinetic/Pharmacodynamic Relationship for a Series of Novel Benzenesulfonamide Perforin Inhibitors” (ACS Pharmacology & Translational Science, 2022)
